# According to publication PMC12396409, “Screening and hit evaluation of a microbial metabolite library against the pathogenic Plasmodium falciparum and Toxoplasma gondii parasites” (International Journal for Parasitology: Drugs and Drug …, 2025):
# Where two headings read alike, the source gives them in different places. *1 amine or outer side, *2 acyl side, *3 side chain or, on linkers, in order; H or OH if unused. Where a SMILES comes first, the peptide text is derived from it. Bridges are numbered along the chain shown (N, C = ends). Roman numbers before positions name the chains, in order. [ ]: non-standard residue; d: D form. hTyr(3S-OH,4S-OH,3'-OSO3H) = N[C@H](C(=O)O)[C@H](O)[C@@H](O)c1ccc(O)c(OS(=O)(=O)O)c1; Actinocin(9to1) = Cc1c2oc3c(C)ccc(C(=O)[*:1])c3nc-2c(C(=O)[*:2])c(N)c1=O; Orn(4R-OH,5R-OH) = O=C([C@H](C[C@@H](O)[C@@H](O)N[*:3])N[*:1])[*:2]; Pro(3S-OH,4S-Me) = C[C@H]1CN[C@H](C(=O)O)[C@H]1O; Gln(3R-OH) = NC(=O)C[C@@H](O)[C@H](N)C(=O)O; Hyp = O=C(O)[C@@H]1C[C@@H](O)CN1; NMeV = CN[C@H](C(=O)O)C(C)C; Sar = CNCC(=O)O
# Columns and labels:
# [1] = tested on: P. falciparum 3D7 parasites; experiment: P. falciparum growth inhibition assay, 1-cycle (72 h treatment), SYBR DNA staining (library screen at 2 μg/mL and dose-response); assay type: cell-based, Plasmodium falciparum; conditions: for activity at 2 µg/mL: Plasmodium falciparum, 3D7
# [2] = tested on: P. falciparum 3D7 parasites; experiment: P. falciparum growth inhibition assay, 2-cycle (120 h treatment), delayed-death screen and dose-response; assay type: cell-based, Plasmodium falciparum; conditions: for activity at 2 µg/mL: Plasmodium falciparum, 3D7
# [3] = tested on: T. gondii RH strain (RH-Tub-eYFP) tachyzoites; experiment: microbe, parasite or virus in culture; assay type: cell-based, Toxoplasma gondii
# [4] = library screen at 2 μg/mL, 72 h, % growth, replicate 1, read-out: Pf_72h_%Growth_Rep1
# [5] = library screen at 2 μg/mL, 72 h, % growth, replicate 2, read-out: Pf_72h_%Growth_Rep2
# [6] = library screen at 2 μg/mL, 120 h, % growth, replicate 1, read-out: Pf_120h_%Growth_Rep1
# [7] = library screen at 2 μg/mL, 120 h, % growth, replicate 2, read-out: Pf_120h_%Growth_Rep2
# [8] = library screen at 2 μg/mL, 72 h, % growth, replicate 1
# [9] = library screen at 2 μg/mL, 72 h, % growth, replicate 2
# [10] = library screen at 2 μg/mL, 120 h, % growth, replicate 1
# [11] = library screen at 2 μg/mL, 120 h, % growth, replicate 2
# [12] = P. falciparum, 72 h, screen at 2 μg/mL, replicate 1
# [13] = P. falciparum, 72 h, screen at 2 μg/mL, replicate 2
# [14] = P. falciparum, 120 h, screen at 2 μg/mL, replicate 1
# [15] = P. falciparum, 120 h, screen at 2 μg/mL, replicate 2
# [16] = T. gondii, 72 h, screen at 2 μg/mL, replicate 1
# [17] = T. gondii, 72 h, screen at 2 μg/mL, replicate 2
# [18] = Toxoplasma gondii, 72 h, library screen at 2 μg/mL, 72 h, % growth, replicate 1; read-out: Tg_72h_%Growth_Rep1
# [19] = Toxoplasma gondii, 72 h, library screen at 2 μg/mL, 72 h, % growth, replicate 2; read-out: Tg_72h_%Growth_Rep2
smiles,measurement,setting,value
"Cc1c2oc3c(C)ccc(C(=O)N[C@@H]4C(=O)N[C@H](C(C)C)C(=O)N5CCC[C@H]5C(=O)N(C)CC(=O)N(C)[C@@H](C(C)C)C(=O)O[C@@H]4C)c3nc-2c(C(=O)N[C@@H]2C(=O)N[C@H](C(C)C)C(=O)N3CCC[C@H]3C(=O)N(C)CC(=O)N(C)[C@@H](C(C)C)C(=O)O[C@@H]2C)c(N)c1=O [Actinomycin D] (I: T[dV]P[Sar][NMeV] / II: T[dV]P[Sar][NMeV]; ester I:1-I:C, II:1-II:C; linker I:N-II:N via Actinocin(9to1))",activity at 2 µg/mL,[1]; [4],2.91%
same,activity at 2 µg/mL,[1]; [5],5.02%
same,activity at 2 µg/mL,[2]; [6],7.65%
same,activity at 2 µg/mL,[2]; [7],-5.71%
same,percent parasite growth at 2 µg/mL,"[3]; Toxoplasma gondii; library screen at 2 μg/mL, 72 h, % growth, replicate 1; read-out: Tg_72h_%Growth_Rep1",2.02%
same,percent parasite growth at 2 µg/mL,"[3]; Toxoplasma gondii; library screen at 2 μg/mL, 72 h, % growth, replicate 2; read-out: Tg_72h_%Growth_Rep2",0.47%
CNC[C@@H]1CC[C@@H](N)[C@@H](O[C@H]2[C@H](O)[C@@H](O[C@H]3OC[C@](C)(O)[C@H](NC)[C@H]3O)[C@H](N)C[C@@H]2N)O1 [Gentamicin C2b],Pf_72h_%Growth_Rep1,[1]; [8],6.39%
same,Pf_72h_%Growth_Rep2,[1]; [9],7.30%
same,Pf_120h_%Growth_Rep1,[2]; [10],7.99%
same,Pf_120h_%Growth_Rep2,[2]; [11],7.07%
same,Tg_72h_%Growth_Rep1,[3]; [8],152.97%
same,Tg_72h_%Growth_Rep2,[3]; [9],86.04%
C=C1[C@@H](C)[C@H]2[C@H](Cc3ccccc3)NC(=O)[C@]23OC(=O)/C=C/C(=O)CCC[C@@H](C)C/C=C/[C@H]3[C@@H]1O [Cytochalasin A],Pf_72h_%Growth_Rep1,[1]; [12],14.20%
same,Pf_72h_%Growth_Rep2,[1]; [13],12.98%
same,Pf_120h_%Growth_Rep1,[2]; [14],0.48%
same,Pf_120h_%Growth_Rep2,[2]; [15],6.78%
same,Tg_72h_%Growth_Rep1,[3]; [16],2.84%
same,Tg_72h_%Growth_Rep2,[3]; [17],2.30%
CC[C@@H](C)/C=C(C)/C=C/C(=O)c1c(O)c(-c2ccc(O)cc2)cn(O)c1=O [Tenellin],Pf_72h_%Growth_Rep1,[1]; [12],58.91%
same,Pf_72h_%Growth_Rep2,[1]; [13],96.26%
same,Pf_120h_%Growth_Rep1,[2]; [14],76.98%
same,Pf_120h_%Growth_Rep2,[2]; [15],107.08%
same,Tg_72h_%Growth_Rep1,[3]; [16],-2.05%
same,Tg_72h_%Growth_Rep2,[3]; [17],1.18%
[N-]=[N+]=NCC(=O)N[C@H](CO)[C@H](O)c1ccc([N+](=O)[O-])cc1 [Azidamfenicol],activity at 2 µg/mL,[1]; [4],82.7%
same,activity at 2 µg/mL,[1]; [5],84.9%
same,activity at 2 µg/mL,[2]; [6],64.6%
same,activity at 2 µg/mL,[2]; [7],95.3%
same,percent parasite growth at 2 µg/mL,[3]; [18],129%
same,percent parasite growth at 2 µg/mL,[3]; [19],103%
CNC1=NC(=O)C(C(C)c2c[nH]c3ccccc23)O1 (stereo not shown) [BIA-I1040],Pf_72h_%Growth_Rep1,"[1]; P. falciparum 3D7, 72 h, library screen at 2 μg/mL, % growth, replicate 1",33.91%
same,Pf_72h_%Growth_Rep2,"[1]; P. falciparum 3D7, 72 h, library screen at 2 μg/mL, % growth, replicate 2",55.84%
same,Pf_120h_%Growth_Rep1,"[2]; P. falciparum 3D7, 120 h, library screen at 2 μg/mL, % growth, replicate 1",17.78%
same,Pf_120h_%Growth_Rep2,"[2]; P. falciparum 3D7, 120 h, library screen at 2 μg/mL, % growth, replicate 2",16.99%
same,Tg_72h_%Growth_Rep1,"[3]; T. gondii RH, 72 h, library screen at 2 μg/mL, % growth, replicate 1",45.17%
same,Tg_72h_%Growth_Rep2,"[3]; T. gondii RH, 72 h, library screen at 2 μg/mL, % growth, replicate 2",47.91%
C/C=C/C[C@@H](C)[C@@H](O)[C@H]1C(=O)N[C@@H](C(C)C)C(=O)N(C)CC(=O)N(C)[C@@H](CC(C)C)C(=O)N[C@@H](C(C)C)C(=O)N(C)[C@@H](CC(C)C)C(=O)N[C@@H](C)C(=O)N[C@H](C)C(=O)N(C)[C@@H](CC(C)C)C(=O)N(C)[C@@H](CC(C)C)C(=O)N(C)[C@@H](C(C)C)C(=O)N1C [Cyclosporin D],Pf_72h_%Growth_Rep1,[1]; [12],1.31%
same,Pf_72h_%Growth_Rep2,[1]; [13],3.21%
same,Pf_120h_%Growth_Rep1,[2]; [14],-2.52%
same,Pf_120h_%Growth_Rep2,[2]; [15],-5.39%
same,Tg_72h_%Growth_Rep1,[3]; [16],61.91%
same,Tg_72h_%Growth_Rep2,[3]; [17],54.60%
COc1ccc2c3c([nH]c2c1)[C@H](C=C(C)C)N1C(=O)[C@@H]2CCCN2C(=O)[C@@H]1C3 [Fumitremorgin C],Pf_72h_%Growth_Rep1,[1]; [8],84.21%
same,Pf_72h_%Growth_Rep2,[1]; [9],83.65%
same,Pf_120h_%Growth_Rep1,[2]; [10],98.00%
same,Pf_120h_%Growth_Rep2,[2]; [11],92.77%
same,Tg_72h_%Growth_Rep1,[3]; [8],152.38%
same,Tg_72h_%Growth_Rep2,[3]; [9],98.57%
CC[C@H]1CCC[C@H](O)[C@@H](C)C(=O)C2=C[C@@H]3[C@@H](C=C[C@@H]4C[C@@H](O)C[C@@H]34)[C@@H]2CC(=O)O1 [Spinosyn A aglycone],IC50,"[1]; 3D7, 72 h treatment, mean ± S.D., n ≥ 3, read-out: IC50 (μM), P. falciparum",> 1 µM
same,Pf_72h_%Growth_Rep1,"[1]; P. falciparum, 72 h, parasite screen 2 μg/mL, % growth, replicate 1",91.52%
same,Pf_72h_%Growth_Rep2,"[1]; P. falciparum, 72 h, parasite screen 2 μg/mL, % growth, replicate 2",38.04%
same,Screen (P. falciparum),"[1]; library screen at 2 μg/mL, 3D7, 72 h, DD from the 120 h timepoint",I
same,Pf_120h_%Growth_Rep1,"[2]; P. falciparum, 120 h, parasite screen 2 μg/mL, % growth, replicate 1",95.52%
same,Pf_120h_%Growth_Rep2,"[2]; P. falciparum, 120 h, parasite screen 2 μg/mL, % growth, replicate 2",13.75%
same,Tg_72h_%Growth_Rep1,"[3]; T. gondii, 72 h, parasite screen 2 μg/mL, % growth, replicate 1",107.96%
same,Tg_72h_%Growth_Rep2,"[3]; T. gondii, 72 h, parasite screen 2 μg/mL, % growth, replicate 2",78.11%
CC[C@H](C)[C@H]1O[C@]2(C=C[C@@H]1C)C[C@@H]1C[C@@H](C/C=C(\C)[C@@H](O[C@H]3C[C@H](OC)[C@@H](O[C@H]4C[C@H](OC)[C@@H](O)[C@H](C)O4)[C@H](C)O3)[C@@H](C)/C=C/C=C3\CO[C@@H]4[C@H](O)C(C)=C[C@@H](C(=O)O1)[C@]34O)O2 [Avermectin B1a],activity at 2 µg/mL,[1]; [4],3.24%
same,activity at 2 µg/mL,[1]; [5],3.85%
same,activity at 2 µg/mL,[2]; [6],3.33%
same,activity at 2 µg/mL,[2]; [7],5.47%
same,percent parasite growth at 2 µg/mL,[3]; [18],81.9%
same,percent parasite growth at 2 µg/mL,[3]; [19],76.2%
"C[C@@H](O)[C@@H]1NC(=O)[C@@H](N)C[C@@H](O)[C@@H](O)NC(=O)[C@@H]2[C@@H](O)[C@@H](C)CN2C(=O)[C@H]([C@H](O)CC(N)=O)NC(=O)[C@H]([C@H](O)[C@@H](O)c2ccc(O)c(OS(=O)(=O)O)c2)NC(=O)[C@@H]2C[C@@H](O)CN2C1=O [FR 179642] (H-[Orn(4R-OH,5R-OH)]T[Hyp][hTyr(3S-OH,4S-OH,3'-OSO3H)][Gln(3R-OH)][Pro(3S-OH,4S-Me)]; lactam 1-C)",Pf_72h_%Growth_Rep1,[1]; [8],86.67%
same,Pf_72h_%Growth_Rep2,[1]; [9],86.11%
same,Pf_120h_%Growth_Rep1,[2]; [10],98.57%
same,Pf_120h_%Growth_Rep2,[2]; [11],95.35%
same,Tg_72h_%Growth_Rep1,[3]; [8],133.49%
same,Tg_72h_%Growth_Rep2,[3]; [9],86.61%
NC(=O)c1cccc2nc3ccccc3nc12 [BIA-O1527],Pf_72h_%Growth_Rep1,"[1]; P. falciparum 3D7, 72 h, parasite screen at 2 μg/mL, % growth, replicate 1",73.74%
same,Pf_72h_%Growth_Rep2,"[1]; P. falciparum 3D7, 72 h, parasite screen at 2 μg/mL, % growth, replicate 2",112.20%
same,Pf_120h_%Growth_Rep1,"[2]; P. falciparum 3D7, 120 h, parasite screen at 2 μg/mL, % growth, replicate 1",104.27%
same,Pf_120h_%Growth_Rep2,"[2]; P. falciparum 3D7, 120 h, parasite screen at 2 μg/mL, % growth, replicate 2",111.59%
same,Tg_72h_%Growth_Rep1,"[3]; T. gondii, 72 h, parasite screen at 2 μg/mL, % growth, replicate 1",111.76%
same,Tg_72h_%Growth_Rep2,"[3]; T. gondii, 72 h, parasite screen at 2 μg/mL, % growth, replicate 2",91.86%
C/C=C/C[C@@H](C)[C@@H](O)[C@H]1C(=O)N[C@@H](CC)C(=O)N(C)CC(=O)N(C)[C@@H](CC(C)C)C(=O)N[C@@H](C(C)C)C(=O)N(C)[C@@H](CC(C)C)C(=O)N[C@@H](C)C(=O)N[C@H](C)C(=O)N(C)[C@@H](CC(C)C)C(=O)N(C)[C@@H](CC(C)C)C(=O)N(C)[C@H](C(C)C)C(=O)N1C [Cyclosporin H],Pf_72h_%Growth_Rep1,[1]; [12],6.54%
same,Pf_72h_%Growth_Rep2,[1]; [13],2.27%
same,Pf_120h_%Growth_Rep1,[2]; [14],5.94%
same,Pf_120h_%Growth_Rep2,[2]; [15],7.89%
same,Tg_72h_%Growth_Rep1,[3]; [16],148.50%
